Reference: patent publication US6958360B2, “Attractant pheromone for the Colorado potato beetle” (The United States of America as represented by the …, priority 2001, dated 2005)

Experiments:
[1] = system: antennal olfactory receptors (short sensillum on the penultimate antennal segment of a CPB); experiment: Single sensillum (single cell) recording of receptor neuron response; parameters: species or system Leptinotarsa decemlineata; details: 100 ng source load; solvent control 8
Protocol: (§1) Sensitivity of antennal olfactory receptors for the racemate and optical isomers of the male specific compound were tested using coupled GC/EAD and single sensillum recording techniques. GC/EAD tests involved injection of 1 μl of serial dilutions of 3,7-dimethyl-2-oxo-oct-6-ene-1,3-diol (CPB I).

[2] = system: CPB adult antenna; experiment: Coupled GC/electroantennogram detection (GC/EAD, EAG); parameters: species or system Leptinotarsa decemlineata; details: for EAD response to compound in volatile collections (in words): volatiles from potato plants / CPB feeding on plant
Protocol: Vertical bars represent standard errors (N=6, 3 males and 3 females).
GC/EAD analysis of volatile collections: One microlitre samples of volatile collections were injected into a Hewlett Packard™ Model 5890A gas chromatograph (GC) equipped with an HP-5 capillary column (crosslinked 5% PH ME Siloxane; film thickness 0.25 μm; length 30 m; i.d. 0.25 mm) and flame ionization detector (FID). The effluent from the column was split using a Gerstel™ GraphPack-3D/2 splitter with a ratio of ˜1 to the GC (FID): 4 to an electroantennogram preparation of a CPB adult (EAD). The EAD preparation was an adult CPB antenna removed and mounted between two glass capillary electrodes filled with 0.1M NaCl. Ag—AgCl wires in the glass capillaries. An effluent conditioning assembly to carry GC effluent over a CPB antennal preparation, hardware, and software for data collection and analyses using a computer were obtained from SYNTECH (Hilversum, the Netherlands). After an initial temperature of 50° C. held for 2 minutes following injection, the GC oven increased at 15° C./min to 235° C. which was held for 8 minutes.
as §1

[3] = system: Colorado potato beetle (CPB); experiment: Open Y-track olfactometer behavioral bioassay, optical isomers vs solvent control; type: in vivo, Leptinotarsa decemlineata; details: serial source loads 0.0001 to 1.0 μg vs solvent control, male and female
Protocol: Chemical blends and plant foliage were tested for behavioral activity in an open Y-track olfactometer modified after Visser and Piron (Visser, J. H., and P. G. M. Piron, Proceedings of the Section Experimental and Applied Entomology of the Netherlands Entomological Society Amsterdam, 9: 41-46 (1998)) and described in detail by Dickens (Dickens, J. C., Agric. Forest Entomol., 1: 47-54 (1999)). In brief, odorous stimuli emanating from volatile collections from CPB males feeding on potato plants or the male-specific compound on filter paper discs (2.5 cm dia.; Whatman™ #1 filter paper) in Ehrlenmeyer flasks were delivered to either side of the device. Hydrocarbon free air that was humidified by passing through distilled water carried the odor molecules to either arm of the bioassay apparatus. Treatments were replenished after 30 min of use in the bioassay apparatus. Airflow was regulated to 1 l/min by flowmeters. Experiments were conducted in a darkened room at 22° C. in which the only source of light was that associated with the bioassay device. For all bioassays, at least 20 males and 20 females were tested.
Volatile collections from male CPB feeding for three hours on a potato plant and serial dilutions of the male specific compound were tested as 10 μl aliquots placed on a filter paper disc as described above. The male specific compound was tested at 1.0 μg/10 μl solvent (hexane) and in a dilution series ranging from 0.0001 to 1.0 μg/10 μl solvent.
Prior to testing at age 7-14 days, unmated insects were held individually in 5.5 oz. cups, provided with fresh potato foliage on a continuous basis, and maintained under incubator conditions of a 16:8 light:dark cycle, 80-90% R.H., and “day” and “night” temperatures of 25° C. and 23° C., respectively. On the day of testing, insects were transferred to smaller 1 oz. cups and held for 1-3 hrs with moist filter paper but no foliage, then held in darkness for an additional 1-2 hrs.
Individual testing in a darkened room at 22° C. began by allowing the beetle to climb onto or be placed approximately midway up the vertical rod of the “T.” In response to a positive phototaxis to light from a flashlight mounted above the “T” and negative geotaxis, the beetles generally climbed upward. Once the insect began waving its antennae, presumably in response to test odors, its forward progress continued. Orientation was scored as soon as the test insect had moved completely from the horizontal to one of the 45 extension arms of the bioassay device. Following each test, the bioassay device was cleaned with acetone to remove contamination left by the insect. For any given series of tests, approximately half were done with the treatment and associated test apparatus on one side, and half were done with them on the other side.
Laboratory bioassays were assessed for significant differences by the hypothesis on binomial proportions based on the standard normal approximation (Brase, C. H., and C. P. Brase (1983), Understanding Statistics, Lexington, Mass.: D. C. Heath).

[4] = system: male CPB; experiment: Enhancement of production of male-specific compound CPB I (24 hour volatile collection); type: in vivo, Leptinotarsa decemlineata
Protocol: CPB I=male-specific compound; P=6-methyl-5-hepten-2-one; FID=response of flame ionization detector. Electroantennogram (EAD) response is included for A-C.
Volatiles were collected from male CPB feeding on 4.8 g of potato foliage in the 3 L VCC. Collections were made continuously for a 24-hour period with a single VCT. Subsequently, volatiles from groups of 20 female CPB were similarly collected in the 3 L VCC continuously for 24 hours with a single VCT.
In an attempt to increase production of the male specific compound, males were subject to the following treatments: JHIII in acetone, extirpation of both antennae, and extirpation of both antennae+JHIII in acetone. All treatments were repeated at least three times. For the JHIII treatment, […] of a 5 μg/ml solution of JHIII was applied to the prothoracic sternum between the coxae. Antennae were removed at the third segment from the proximal end. All treatments were performed 1 hour before placing beetles into the VCC. For the treatment with both antennae removed+JHIII, three separate collections were made continuously for at least seven days following treatment. The collection chamber was cleaned, rinsed, and fresh foliage added daily.

Q: What does the source list for CC(C)=CCCC(C)(O)C(=O)CO (racemic) [racemic CPB I, 3,7-dimethyl-2-oxo-oct-6-ene-1,3-diol]?
A: action potentials during 500 msec following the initial phasic increase [1]: 18 action potentials; Mean EAG (in words) ([2]; 10 ng injection, males and females combined): intermediate response; orientation preference (in words) [3]: no significant preference

Q: Which “EAD response to compound in volatile collections (in words)” value [2] does the source give for OCCc1ccccc1 [2-phenyl ethanol, reference compound] here?
A: an EAD response for 2-phenyl ethanol was also observed

Q: What does the source list for CC(C)=CCC[C@@](C)(O)C(=O)CO [(R)-CPB I]?
A: action potentials during 500 msec following the initial phasic increase [1]: 9 action potentials; orientation preference (in words) [3]: inactive; orientation preference (in words) ([3]; listed as (R)-enantiomer): no significant preference

Q: How did the “production of CPB I after topical treatment” value ([4]; 10 μg JH III topical, 20 males, 24 hour collection, untreated mean 53 ng) turn out when COC(=O)/C=C(\C)CC/C=C(\C)CC[C@H]1OC1(C)C [JH III, juvenile hormone III] was run?
A: 396.2 ng

Q: And the “enhancement of collections of CPB I” value ([4]; JH III and antennectomy)?
A: ~200 ×

Q: And the “enhancement of CPB I production relative to untreated males” value ([4]; JH III topical alone)?
A: eightfold

Q: What about the “production of CPB I after combined treatment” value ([4]; JH III topical and antennectomy) of the same compound?
A: 8833 ng

Q: What about the “increase of quantities of CPB I released vs control insects” value ([4]; JH III treatment and antennectomy) of the same compound?
A: 166 times

Q: With CCCCCCCCC=O [nonanal, reference compound] as the compound, how does the “EAD response to compound in volatile collections (in words)” value [2] read?
A: EAD responses were present
